In a melting point compilation (Tetko et al.; mined from patent text by program, amines drawn as free bases though some values may be those of a salt):

Row | melting point | Structure (SMILES)
1 | 105 to 106 °C | O=[N+]([O-])C=C(Cl)SCCCNS(=O)(=O)c1ccccc1
2 | 146 to 147 °C | CC(C)Oc1n[nH]c(=O)n1C1CC1
3 | 147 to 149 °C | O=C(NCCN(Cc1ccccc1)Cc1ccccc1)C1CCN(c2c(Cl)cncc2Cl)CC1
4 | 200 to 201 °C | CCOC(=O)c1cc2cc3c(cc2oc1=O)OCO3
5 | 252 to 254 °C | CC1(C)SC(=N)NC1=O
6 | 300 °C | Cn1cc(C2=C(c3c(S(C)=O)n(C)c4ccccc34)C(=O)NC2=O)c2ccccc21 (stereo unspecified)
7 | 159 to 161 °C | O=C(O)c1cccc2ccoc12
8 | 59 to 61 °C | CCCC(SCC(=O)O)c1ccc2c(c1)OCO2 (stereo unspecified)
9 | 160 °C | O=C(c1nc(-c2ccccc2)nc2ccccc12)N1CCCCC1
10 | 175 to 184 °C | O=C(O)c1nccnc1N1CCN(CC(O)CO)CC1 (stereo unspecified)
11 | 98 to 99 °C | CCCCNc1nc2cnnc(OCC)c2cc1C(=O)OCC
12 | 86 to 87 °C | CC(C)c1nc(CN)n(C)c1Sc1cc(Cl)cc(Cl)c1
13 | 114 to 116 °C | O=c1c(Cl)c(Cl)sn1C1CCCCC1
14 | 88 °C | CN1CCc2cc(C=O)sc2C(c2ccccc2)C1 (stereo unspecified)
15 | 155 to 156 °C | S=C(NN=Cc1cccc(-c2ccc(Cl)cc2Cl)n1)NN1CCCC1
16 | 123 to 125 °C | CC(C)c1ccc(N(Cc2ccc(N(C)C)cc2)C(=S)C2CCCc3ccccc32)cc1 (stereo unspecified)
17 | 152 to 153 °C | ClCc1ccc2oc(-c3cccs3)nc2c1
18 | 72 to 74 °C | CCOC(=O)/C=C/c1cc(OCc2ccccc2)ccc1Br
19 | 82 to 83 °C | CCOC(=O)C1=Cc2ccsc2S(=O)(=O)N1CCCOC
20 | 148 to 151 °C | Cc1c(C(F)(F)F)nn(C)c1O
21 | 207 to 210 °C | CCOC(=O)c1cn(-c2ccc(F)c(NC(C)(C)C)n2)c2c(Cl)c(F)c(F)cc2c1=O
22 | 119 to 120 °C | CCCCCCCC[C@@H](O)C(=O)Nc1c(SC)ccc2ncccc12
23 | 176 to 177 °C | Cc1nc2ccccc2n2cnc(C(=O)OC(C)(C)C)c12
24 | 252 °C | CCOc1ccccc1NC=C1C(=O)N(c2ccc(S(=O)(=O)N3CCCCC3)cc2)N=C1C

Row | melting point | Structure (SMILES)
25 | 167 to 168 °C | COc1ccc(Cn2cnc3c(-c4ccco4)nc(N(C(C)=O)C(C)=O)nc32)cc1
26 | 193 to 196 °C | Cc1cc2cc(CN3CCC(CCC(=O)N(C)C)CC3)cnc2cc1NC(=O)c1ccc(-c2ccc(F)cc2)cc1
27 | 187 to 188 °C | CCOP(=O)(CNc1ccc2cc([N+](=O)[O-])cc(-c3cccc4ccccc34)c2n1)OCC
28 | 252 to 254 °C | NC(=NO)c1ncn2c1COC(=O)c1c(Cl)cccc1-2
29 | 253 °C | CC(=O)Nc1cc2c(c(C(=O)O)c1)NCCO2
30 | 169 to 171 °C | Cc1cc(O)ccc1-c1ccc(C=NO)c(Cl)c1
31 | 200 to 202 °C | CN1C(=O)C(c2ccncc2)(c2cccc(-c3cc(F)ccc3F)c2)N=C1N (stereo unspecified)
32 | 220 to 224 °C | CN1CCN(CNC(=O)c2cccc(Nc3nccc(-c4cccnc4)n3)c2)CC1
33 | 137 to 139 °C | COc1cc(COc2cc(N)c(Cl)cc2C(=O)CCCCN2CCCCCC2)cc(OC)c1
34 | 164 to 166 °C | O=C1C(=Cn2ccnc2)c2ccccc2N1c1cccc(Cl)c1
35 | 94 to 95 °C | CC(C)(C)c1ccc(O)c(S(=O)(=O)CCl)c1
36 | 291 to 295 °C | CCCn1cc2c(C3C(=O)Nc4ccc(C#N)cc43)nc(NCc3cccnc3)nc2n1 (stereo unspecified)
37 | 88 °C | CCc1cc(OC)c(-c2nc(N)sc2CCC2CCCCC2)cc1OC
38 | 107 to 110 °C | COc1cccc(NC(SC)=C(C#N)S(=O)(=O)C(C)C)c1
39 | 100 to 103 °C | COCc1nc(C=O)c[nH]1
40 | 238 to 240 °C | CCCCCCC(C(=O)O)n1cnc(NC(=O)c2cccc(O)c2S(=O)(=O)O)c1 (stereo unspecified)
41 | 96 to 100 °C | C[C@H](NC(=O)c1ccc[nH]1)C(=O)NC(C=O)CC(=O)O (stereo partly specified)
42 | 162 °C | COc1ccc(-c2nnc(C(C)C)n2-c2ccc(OC)cc2)cc1
43 | 80 °C | O=S(CCCCCCOc1ccc(C2=C(c3ccccc3)CCCc3cc(O)ccc32)cc1)Cc1ccccn1 (stereo unspecified)
44 | 265 to 270 °C | CN(C)c1ccc(C2(c3ccc(N(C)C)cc3)NNC(=O)c3cc(N(C)C)ccc32)cc1
45 | > 300 °C | OCc1ccc(-c2cc3c(Nc4ccc(F)c(Cl)c4)ncnc3[nH]2)cc1
46 | 280 to 282 °C | Cc1cc(O)c2c(ccc3nc(-c4ccco4)[nH]c32)n1
47 | 287 to 288 °C | COC(=O)c1ccc(N2C(=O)C(O)=C(C(=O)c3ccc(C)cc3)C2c2ccc(C(C)(C)C)cc2)nc1 (stereo unspecified)
48 | 141 to 142 °C | CCOC(=O)c1c(Nc2cc(F)ccc2N)sc2ccccc12

Row | melting point | Structure (SMILES)
49 | 73 to 74 °C | O=C(Nc1ccc(F)c(Cl)c1F)C(F)(F)F
50 | 174 to 178 °C | COc1c(-c2ccc3cc(NS(C)(=O)=O)ccc3c2)cc(-n2ccc(=O)[nH]c2=O)cc1-c1ccc(C)o1
51 | 222 to 223 °C | Cc1oc(-c2ccccc2)nc1COc1nn(Cc2ccc(Oc3ccccc3)cc2)cc1C(=O)O
52 | 213 °C | Nc1cc(C(=O)O)nn1-c1c(Cl)cc(C(F)(F)F)cc1Cl
53 | > 260 °C | CC(C)Cc1ccccc1-n1c(=O)[nH]c2c(C(N)=O)nc(-c3cccc(O)c3)nc21
54 | 156 to 158 °C | CC(=O)N[C@H]1C(n2cc(Cl)cnc2=O)O[C@H](CO)[C@@H](O)[C@@H]1O (stereo partly specified)
55 | 58 to 60 °C | COC(=O)CCC(=O)OCC(C)(C)Oc1ccc2c(c1)CCc1c-2ccc2c1CCC2(C)C
56 | 116 to 117 °C | O=C1SC(=Cc2cccs2)C(=O)N1CCCCSc1cccc2nccn12
57 | 240 °C | Cc1cc2c(cc1C1=NNC(=O)SC1C)C(C)(C)C(=O)N2 (stereo unspecified)
58 | 158 to 160 °C | O=C(On1nnc2ccccc21)c1ccc2c(c1)OC(c1ccccc1)(c1ccccc1)O2
59 | 104 to 106 °C | CNc1cn(-c2cccnc2)nc1Cl
60 | 180 to 181 °C | C[C@@H](c1ccc(-c2ccc(=O)n(C)c2)cc1)N1CC[C@](CC(C)(C)O)(c2ccccc2)OC1=O
61 | 170 °C | COc1ccc(CN(C)CCN(C)Cc2ccc(NC(=O)c3cccc4c(=O)c5cccc(OC)c5[nH]c34)cc2)cc1OC
62 | 122 to 123 °C | COc1ccc(C2CCN(C(=O)CC(=O)O)CC2)cc1OC1CCCC1
63 | 86 to 92 °C | O=C(O)CCCCc1c[nH]c2ccc(F)cc12
64 | 222 to 226 °C | CC(=O)Nc1ccc(C2=NNC(=S)NC2C)cc1 (stereo unspecified)
65 | 136 to 137 °C | CCCNc1nc(C#N)c(C#N)nc1-c1ccccc1
66 | 180 to 182 °C | CC(=O)NS(=O)(=O)c1ccc(NC(=O)c2ccccc2SSc2ccccc2C(=O)Nc2ccc(S(=O)(=O)NC(C)=O)cc2)cc1
67 | 186 to 188 °C | Cn1cnnc1Sc1nc(-c2ccc(Cl)cc2)c(CCC(=O)O)o1
68 | 175 to 178 °C | CC(C)(C)NC(=O)[C@@H]1CNNC1=O
69 | 250 to 252 °C | COc1ccc(OC)c(C=C2NC(=O)NC2=O)c1
70 | 113 to 115 °C | Cc1cc(C)n(C(=O)CCNS(=O)(=O)c2ccccc2)n1
71 | 226 to 229 °C | Cc1ccc(O)c2c1CCC1C2CCC2(C)C(O)CCC12 (stereo unspecified)
72 | 143 to 144 °C | Cc1cc(O)ccc1NC(=O)OC(C)(C)C

Row | melting point | Structure (SMILES)
73 | 208 to 210 °C | ON=C1CSc2ccccc2CN1
74 | 51.6 °C | CCCCCCCCOC(=O)Oc1ccc(-c2ccc(C#N)cc2)cc1
75 | 128 to 129 °C | CCCCOc1cc(C(=O)O)n(Cc2ccc(C(F)(F)F)cc2)n1
76 | 109 °C | CCOC(=O)C=CC(=CN)C(=O)OCC
77 | 73 to 76 °C | CC(C)Oc1cccc(CC(=O)N2CCC(CCN3CCC(C(=O)c4nc5ccccc5n4Cc4ccc(F)cc4)CC3)(c3ccc4c(c3)OCO4)C2)c1 (stereo unspecified)
78 | 99 to 102 °C | CNc1cc(Cc2c(-c3ccc(OCCN4CCCC4)cc3)sc3cc(O)ccc23)ccc1CN1CCCC1
79 | 127 to 129 °C | CC(C)OC1CC(O)C(=O)N1S(=O)(=O)c1ccccc1 (stereo unspecified)
80 | 88 to 90 °C | O=C(O)CCNC(=O)NCC(CS)c1ccccc1 (stereo unspecified)
81 | 166 to 168 °C | CCOc1cc([C@H]2COCC[C@H]2NC(=O)c2ccc(C(=O)OC)cc2)ccc1OC
82 | 149 to 150 °C | COC(=O)c1ccc(-c2nc(-c3cc(Cl)sc3Cl)cs2)cc1
83 | > 200 °C | CSc1nc(N2CCc3ccccc3CC2)c(C#N)c2nncn12
84 | 215 to 219 °C | O=c1oc(-c2ccccc2)cc(O)c1Oc1ccccc1
85 | 258 °C | FC(F)(F)c1cccc(-c2cc(C(F)(F)F)n3cnc(-c4ccncc4)c3n2)c1
86 | 111 to 112 °C | Cc1cc(C)c(C(=O)c2ccc(-c3ccccc3)cc2)c(C)c1
87 | 243 to 245 °C | CN1C(C2CCCCC2)Nc2ccc(S(=O)(=O)N3CCOCC3)cc2S1(=O)=O (stereo unspecified)
88 | 226 to 227 °C | CC1CN(c2cc3c(cc2F)c(=O)c(C(=O)O)cn3CCF)CCN1 (stereo unspecified)
89 | 131 to 133 °C | CCC(c1ccc(O)cc1)c1ccc(O)cc1
90 | 112 to 114 °C | O=[N+]([O-])c1cccc2cc(-c3ccccc3)cnc12
91 | 273 to 275 °C | Nn1c(=O)c(=O)[nH]c2c(Br)cc(Br)cc21
92 | 214 to 215 °C | CC(=O)Nc1ccc(S(=O)(=O)Nc2nncs2)cc1
93 | 276 °C | COc1c(C)c(C(=O)c2ccc3c(c2)c(=O)n(CC(=O)N(C)C)c(=O)n3C)n2ccccc12
94 | 183 °C | CNc1ccc2cnc(C(=O)c3ccc([N+](=O)[O-])c(C(=O)OC)c3)n2c1
95 | 38 to 40 °C | COc1cc(Cl)cc2c1CCC2

Row | Structure (SMILES) | melting point
96 | O=C(NCc1ccc(Cl)cc1)c1cn(CCN2CCOCC2)c2ccc(C#CCO)cc2c1=O | 215 to 218 °C
97 | CC(C)NC(=O)c1ccc(N2CCC(N3C(=O)OCc4ccccc43)CC2)c(S(C)(=O)=O)c1 | 240 to 242 °C
98 | Cc1cccc(NC(=O)NN2CCN(CCc3c[nH]c4ccccc34)CC2)c1 | 186 to 188 °C
99 | O=C(O)c1nc(-c2ccccc2)n2c1CN=C(c1ccccc1F)c1cc(Cl)ccc1-2 | 267 to 269 °C
100 | Cc1nnc(C2CN3CCC2CC3)o1 (stereo unspecified) | 147 to 148 °C
101 | CCN(CC)Cc1nc(-c2ncn3c2CN(C)C(=O)c2cc(F)ccc2-3)no1 | 172 to 174 °C
